Source: article PMC10312377, “A conserved epitope in VAR2CSA is targeted by a cross-reactive antibody originating from Plasmodium vivax Duffy binding protein” (Frontiers in Cellular and Infection Microbiology, 2023)

What was measured:
[1] = system: 3D10 MAb (raised against PvDBP region II); test: Indirect ELISA, titration of 3D10 against coated peptides; type: binding, mouse; details: for 3D10 recognition of peptide by ELISA: peptide coated at 5 µg/ml, titration of 3D10, OD relative to isotype control IgG1
Procedure: (§1) Immunoglobulin G (IgG) reactivity was measured using the enzyme-linked immunosorbent assay (ELISA). Briefly, 96-well Maxisorb plates (catalogue no. 439454; Thermo Fisher Scientific) were coated with synthetic peptides and recombinant full-length VAR2CSA diluted in 1 x PBS and incubated overnight at 4°C. Coated plates were blocked with 4% bovine serum albumin (BSA, catalogue no. A7906; Sigma-Aldrich) for 1 h at 37°C, then washed once with 1 x PBST (0.1% Tween 20). Plates were incubated with primary antibody for 1 h at room temperature (RT) and washed four times with 1 x PBST. The washed plates were incubated at RT for 1 h with 100 µl of HRP-conjugated secondary antibody (goat anti-human HRP, catalogue no. ab98624, Abcam; goat anti-mouse HRP, catalogue no. 170-6516, Bio-Rad, Mississauga, Canada; goat anti-rat HRP catalogue no. 62-9520). After four washes, 100 µl of 3,3′,5,5′-Tetramethylbenzidine (TMB, catalogue no. T0440; Sigma-Aldrich) were added and the reaction was stopped after 30 mins with an equal volume of H2SO4 (0.5 N). Human sera were screened once, in duplicate. The optical density (OD) values were converted to arbitrary units relative to the positive control sera included on each plate using the formula: AU = ODtest -ODbackground/ODpositive control pool – ODbackground)*100. The positive control pool refers to the OD of a pool of Colombian or Ugandan samples that were seroreactive against the peptides or VAR2CSA, respectively. The background is the OD with secondary antibody alone. The cut-off for seropositivity was based on the mean AU of sera from 12 individual Colombians not exposed to malaria plus 2 standard deviations; data to generate the cut-off are from two independent experiments. Only sera that were above the cut-off for VAR2CSA seropositivity were screened against CRP1 and SD1CLIPS.

[2] = Isothermal titration calorimetry (ITC) of peptides with CSA; type: binding, Bovine; details: 25°C; for Binding to CSA by ITC: PBS with 0.5% acetonitrile pH 7.4, 50 µM peptide in cell, 1 mM CSA in syringe, 25 injections of 1.5 µl
Procedure: Bovine tracheal CSA was purchased from Sigma-Aldrich (Cat no C9819). The energetics of the binding of peptides to CSA was performed at 25°C, on a MicroCal PEAQ-ITC calorimeter (Malvern Panalytical, Malvern, USA). For all experiments, samples were prepared in PBS containing 0.5% acetonitrile, pH 7.4. The reference cell was loaded with autoclaved milli-Q ultra-pure water; the sample cell was loaded with peptide solution (50 µM) and the syringe was filled with 1 mM CSA solution (based on a molecular weight of 50 kDa). In each titration, 25 injections of 1.5 μl of the CSA solution were made into the sample cell. A spacing of 150 s between each injection was applied to enable the system to reach equilibrium. The ITC data were analyzed with MicroCal-PEAQ-ITC Analysis Software v1.41. Binding parameters such as the ΔH (enthalpy change) and the ΔS (entropy change) were determined by fitting the experimental binding isotherms with the ‘one set of sites’ fitting model and GraphPad Prism software (version 9) was used to plot the results.

[3] = system: rat-CRP1 antibodies (sera of CRP1-BSA immunized rats); test: Indirect ELISA, reactivity of rat anti-CRP1 sera against peptides; type: binding; details: peptide coated 5 µg/ml, rat sera 1/100 dilution
Procedure: as §1, with “The positive control pool refers to the OD of a pool of Colombian or Ugandan samples that were seroreactive against the peptides or VAR2CSA, respectively. The background is the OD with secondary antibody alone. The cut-off for seropositivity was based on the mean AU of sera from 12 individual Colombians not exposed to malaria plus 2 standard deviations; data to generate the cut-off are from two independent experiments. Only sera that were above the cut-off for VAR2CSA seropositivity were screened against CRP1 and SD1CLIPS.” left out

[4] = system: P. falciparum CS2 infected erythrocytes (VAR2CSA-expressing) binding to CSA; test: Inhibition of binding assay (IBA), static binding of IEs to CSA; type: cell-based; details: CS2 IEs preincubated with soluble CSA 250 µg/ml, positive control; relative to AE-BSA control
Procedure: CRP1 was conjugated to BSA (as carrier protein) at the N-terminus through an azide-alkyne cycloaddition and outsourced commercially to ProSci (California, USA) for rat immunizations. As controls, an unrelated peptide conjugate (P5-BSA), the PAMVAC vaccine candidate (ID1-ID2a region from VAR2CSA) and the carrier protein conjugated to the linker (azido-ethanol (AE-BSA)) were included. Briefly, two female Sprague Dawley rats (~11 weeks old) were immunized intraperitoneally on day 0 with 75 µg of each antigen formulated in PBS and Complete Freund’s Adjuvant (CFA) followed by 3 booster immunizations with 50 µg of antigen in Incomplete Freund’s Adjuvant at 2-week intervals. Sera were collected 14 days after the final boost.
P. falciparum CS2 parasites were cultured in vitro as described ([Trager and Jensen, 1976]). Parasites were selected for adhering to CSA every 3-4 weeks to enrich for parasites expressing VAR2CSA. […]
The ability of anti-CRP1 IgG to block parasite binding to CSA in vitro was assessed by a static binding assay ([Gnidehou et al., 2014]). […] After washing, spots were fixed with glutaraldehyde and stained with Giemsa before imaging using a EVOS FL Auto microscope (Invitrogen) and the number of parasites bound per spot was analyzed using ImageJ. Percent inhibition of binding was calculated relative to the counts from the AE-BSA control.

[5] = system: 3D10 MAb binding to SD1CLIPS; test: Competition ELISA of 3D10 with SD1CLIPS as capture antigen; design: species or system mouse; details: 3D10 (1.72 µg/ml) pre-incubated 1 h RT with 10 µg/ml competing peptide; SD1CLIPS coated 1 µg/ml; compared with negative control peptide P10; 3 independent experiments
[6] = system: 3D10 MAb binding to recombinant VAR2CSA (FCR3); test: Competition ELISA of 3D10 with VAR2CSA as capture antigen; design: species or system mouse; details: 3D10 (8.6 µg/ml) pre-incubated 1 h RT with 10 µg/ml competing peptide; VAR2CSA coated 1 µg/ml; 3 independent experiments
Procedure: as §1, with “The positive control pool refers to the OD of a pool of Colombian or Ugandan samples that were seroreactive against the peptides or VAR2CSA, respectively. The background is the OD with secondary antibody alone. The cut-off for seropositivity was based on the mean AU of sera from 12 individual Colombians not exposed to malaria plus 2 standard deviations; data to generate the cut-off are from two independent experiments. Only sera that were above the cut-off for VAR2CSA seropositivity were screened against CRP1 and SD1CLIPS.” left out

Row | Substance | 3D10 recognition of peptide by ELISA [1] | Binding to CSA by ITC [2] | Recognition of peptide by rat-CRP1 antibodies (ELISA) [3] | other results
1 | KQIWLKSKSKNKTEEKGKDYYQKEKYKANLEVSD [Scrambled CRP1 peptide, scrambled version of CRP1, reference compound] | poorly recognized | also bound to CSA | did not recognize | 
2 | KKYISEKKQEWDAQKTAYENAYVGKSASDLLKEN [CRP1-AAA] | completely abolished antibody recognition |  |  | 
3 | KAYISEKKQEWDKQKTKYENKYVGKSASDLLKEN [CRP1-K1510A] | partially reduced binding |  |  | 
4 | chondroitin sulfate A [Soluble CSA] |  |  |  | Percent inhibition of IE binding to CSA [4]: over 90%
5 | KKYISEKKQEWDKQKTKYENKYVGKSASDLLKEN [CRP1] | recognizes | heat release after each CSA injection, consistent with CSA binding to CRP1 | recognized | 3D10 recognition of peptide by ELISA compared with SD1CLIPS ([1]; both peptides coated at 1 µg/ml, titration of 3D10): substantially weaker; Competition for 3D10 binding to SD1CLIPS [5]: significant loss in SD1CLIPS recognition; Competition for 3D10 binding to VAR2CSA [6]: same binding inhibition toward VAR2CSA as compared to SD1CLIPS; Binding to CSA by ITC in the presence of 100 mM NaCl ([2]; 50 µM peptide, 1 mM CSA, in the presence of 100 mM NaCl): abrogated
